The values that follow come from patent publication US7112586B2, “Substituted diamine derivatives useful as motilin antagonists” (Ortho-McNeil Pharmaceutical, Inc., priority 2000, dated 2006).

Assay [1] has as its target T1, motilin receptor preparation (Human antrum tissue) (Homo sapiens, UniProt O43193).
T1 construct: Human antrum tissue from Analytical Biological Services (Wilmington, Del.) was prepared as a motilin receptor preparation; tissue Analytical Biological Services (Wilmington, Del.); host or cells: human antrum (stomach) muscle tissue, crude membrane homogenate
As to the kind of experiment: 125I-motilin binding to human antral stomach membranes. Particulars: 125I-Motilin binding to human antral stomach membranes. As to the method: Human antrum tissue from Analytical Biological Services (Wilmington, Del.) was prepared as a motilin receptor preparation in the following manner. The muscle tissue was homogenized in 10 volumes of 50 mM Tris-Cl, 10 mM MgCl2, 0.1 mg/ml bacitracin, and 0.25 mM Peflabloc, pH 7.5) in a Polytron (29000 rpm, 4×15 seconds). The homogenate was centrifuged at 1000×g for 15 minutes and the supernatant discarded. The pellet was washed twice before being suspended in homogenizing buffer. The crude homogenate was resuspended through a 23 gauge needle before aliquoting and storing at −80° C. The human cloned receptor was prepared from HEK 293 cells overexpressed with the motilin receptor. Cell pellets were thawed and resuspended in 2–3 volumes of homogenizing buffer (10 mM Tris-Cl, 0.2 mM MgCl2, 5 mM KCl, 5 μg/ml aprotinin, leupeptin, and pepstatin A, and 50 μg/ml bacitracin, pH 7.5) and allowed to sit on ice for 15–20 minutes. The suspension was homogenized on ice in a Dounce type homogenizer using 15 strokes. Sucrose and EDTA were added to a final concentration of 0.25M and 1 mM, respectively, and mixed with a few additional strokes. The material was centrifuged at 400×g for 5 minutes, and the supernatant saved. The pellet was re-resuspended twice with 5 ml homogenizing buffer and rehomogenized as before, and the supernatants combined. The supernatant was centrifuged at 100000×g for 1 hour. The pellet is retained and resuspended with 5 ml of homogenizing buffer through a 19 g and 25 g needle. The suspension is aliquoted and stored at −80° C. until used. The binding assay contains the following components (50 mM HEPES, 5 mM MgCl2, and 1 mM EGTA, pH 7.0, 15 mg/ml BSA, 10 μg/ml aprotinin, leupeptin, and pepstatin A, 0.25 mg/ml bacitracin, and 10 mM benzamidine), ^125I-radiolabelled porcine motilin (50000–70000 cpm; specific activity 2000 Ci/mmol), test compound, and membrane protein. After 60 minutes at 30° C., the samples are placed on ice and centrifuged for 1 minute at 13000×g. The pellet is washed twice with 1 ml cold saline, and after removal of the final supernatant, the pellet at the bottom of the tube is counted in a gamma counter. Non-specific binding is measured by the inclusion of 1 μM unlabelled motilin. IC50 values were determined from Kaleidograph curves.
125I-Motilin Binding to Human Antral Stomach Membranes and the Human Cloned Receptor: […]

Assay [2] addresses T2, human cloned receptor (motilin receptor) (Homo sapiens, UniProt O43193).
T2 construct: expressed in transfected cells; host or cells: HEK 293 cells
As to the kind of experiment: 125I-motilin binding to human cloned receptor (HEK 293 cells overexpressed with the motilin receptor). Particulars: HEK 293 membranes. The method, then:
Human antrum tissue from Analytical Biological Services (Wilmington, Del.) was prepared as a motilin receptor preparation in the following manner. The muscle tissue was homogenized in 10 volumes of 50 mM Tris-Cl, 10 mM MgCl2, 0.1 mg/ml bacitracin, and 0.25 mM Peflabloc, pH 7.5) in a Polytron (29000 rpm, 4×15 seconds). The homogenate was centrifuged at 1000×g for 15 minutes and the supernatant discarded. The pellet was washed twice before being suspended in homogenizing buffer. The crude homogenate was resuspended through a 23 gauge needle before aliquoting and storing at −80° C. The human cloned receptor was prepared from HEK 293 cells overexpressed with the motilin receptor. Cell pellets were thawed and resuspended in 2–3 volumes of homogenizing buffer (10 mM Tris-Cl, 0.2 mM MgCl2, 5 mM KCl, 5 μg/ml aprotinin, leupeptin, and pepstatin A, and 50 μg/ml bacitracin, pH 7.5) and allowed to sit on ice for 15–20 minutes. The suspension was homogenized on ice in a Dounce type homogenizer using 15 strokes. […] The pellet is washed twice with 1 ml cold saline, and after removal of the final supernatant, the pellet at the bottom of the tube is counted in a gamma counter. Non-specific binding is measured by the inclusion of 1 μM unlabelled motilin. IC50 values were determined from Kaleidograph curves. […]

T2 sequence (O43193 whole entry): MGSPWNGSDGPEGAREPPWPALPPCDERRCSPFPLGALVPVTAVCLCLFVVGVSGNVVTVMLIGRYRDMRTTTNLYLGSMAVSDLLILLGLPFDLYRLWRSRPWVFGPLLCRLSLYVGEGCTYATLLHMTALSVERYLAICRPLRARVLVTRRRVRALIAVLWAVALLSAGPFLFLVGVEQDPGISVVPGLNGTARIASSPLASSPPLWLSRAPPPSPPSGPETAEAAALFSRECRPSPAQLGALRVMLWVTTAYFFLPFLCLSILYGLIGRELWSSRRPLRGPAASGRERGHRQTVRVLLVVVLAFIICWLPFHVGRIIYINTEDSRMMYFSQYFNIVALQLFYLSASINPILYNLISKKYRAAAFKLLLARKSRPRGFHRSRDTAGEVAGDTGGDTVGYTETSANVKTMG
T1 sequence (O43193 whole entry): as above

In the case of `CC[C@H](C)[C@H](NC(=O)[C@@H]1CCCN1C(=O)[C@@H](NC(=O)[C@@H](N)Cc1ccccc1)C(C)C)C(=O)N[C@@H](Cc1ccccc1)C(=O)N[C@H](C(=O)N[C@@H](Cc1ccc(O)cc1)C(=O)NCC(=O)N[C@@H](CCC(=O)O)C(=O)N[C@@H](CC(C)C)C(=O)N[C@@H](CCC(N)=O)C(=O)N[C@@H](CCCNC(=N)N)C(=O)N[C@@H](CCSC)C(=O)N[C@@H](CCC(N)=O)C(=O)N[C@@H](CCC(=O)O)C(=O)N[C@@H](CCCCN)C(=O)N[C@@H](CCC(=O)O)C(=O)N[C@@H](CCCNC(=N)N)C(=O)N[C@@H](CC(N)=O)C(=O)N[C@@H](CCCCN)C(=O)NCC(=O)N[C@@H](CCC(N)=O)C(=O)O)[C@@H](C)O` [Motilin], the IC50 in assay [1] came out at 1 ± 0.1 nM; in assay [2], 3.55 ± 0.05 nM.
